The assay has as its system human epidermal melanocytes from dark human neonatal foreskin (HEMn-DP). Nature of the assay: Quantification of total melanin in cultured melanocytes after 72 hours treatment. Type of assay: cell-based. The note with it: for Mean mg melanin/100K cells: mean of triplicate; for mg melanin/100K cells: single replicate well, normalized to cell number. As for the experimental part: Monolayer cultures were initiated from cryopreserved cultures of human epidermal melanocytes from dark human neonatal foreskin (HEMn-DP; C-202-5C; Cascade Biologics™), according to the manufacturer's instructions. Cells were cultured in Medium 254 (M-254-500, Cascade Biologics) supplemented with Human Melanocyte Growth Supplement (HMGS; S-0002-5, Cascade Biologics). Stocks of these cultures were generated and stored in Sythn-a-Freeze® cryopreservation media (R-005-50. Cascade Biologics) in liquid nitrogen at passage 2.
For use in assays, cells were thawed according to manufacturer's instructions, and subcultured to increase cell numbers as required. Cells were then plated into 6-well plates at ˜200,000 cells per well and incubated at 37° C., 5% CO2, and were used in assays at passage 4.
Once the melanocytes had adhered to the 6-well plate's (approx. 4-6 hr.), the medium was replaced with Medium 254 containing Human Melanocyte Growth Supplement PMA-free (HMGS-2; S-016-5 hereafter termed depleted media) for approximately 16 hours, or overnight, prior to treatment with the actives.
To develop the screening assay a variety of cell concentrations and incubation times were tested to obtain optimized measurable levels of melanin. During this process no materials were applied to the cells. In addition a standard melanin (M8631, Sigma Aldrich) stock solution was prepared in Solvable™ reagent (5NE9100, Perkin Elmer) to obtain a standard curve for evaluating levels of melanin extracted from cells using a spectrophotometer. Method development was performed to obtain the optimum time required to solubilize the melanin into solution without degradation and a reduction in color.
All stocks of active materials were diluted in DMSO, ethanol or media, before further dilution in depleted media. Treatments were applied to the cells in 6-well plates in triplicate for 72 hours after which time the cells were harvested. Appropriate solvent controls in triplicate were incorporated into each assay.
After 72 hours, media was removed form the cells and the cells were washed once in Dulbecco's PBS. The PBS wash was removed and discarded and care being taken to ensure that all excess PBS was removed as far as possible. 1 mL trypsin-EDTA solution (R-001-100, Cascade Biologicsm) was added and cells incubated at room temperature for ˜1 minute. Microscopic observation was carried out to ensure all cells had detached from the plate. The resulting cell suspension was transferred to a 1.5 mL Eppendorf tube, 50 μL was removed for a cell count (Beckman coulter counter), and the remaining suspension was centrifuged at 13,000 rpm for 5 minutes. The supernatant was discarded and the cell pellets were frozen at −20° C.
The cell pellets were thawed at room temperature, and each pellet was re-suspended in 75 μL Solvable™ reagent (6NE9100, Perkin Elmer). Each tube was vortexed briefly, before incubating in a water bath at 60° C. for 1 hour. After the 1 hour incubation, each tube was vortexed and then centrifuged at 13,000 rpm for 15 minutes. The supernatant containing the extracted melanin was transferred to a 96 well plate and the absorbance at 490 nm recorded on a Dynex MRX-II plate reader.
Each ingredient was tested in triplicate and compared against the relevant vehicle control. The total amount of melanin extracted was calculated from a melanin standard curve. All resultant data was normalized to the total number of the cells in the sample. Data was subjected to the F-test for variance, followed by Student's t-test (assuming equal or unequal variance depending on results of the F-test.

The structures appear in SMILES notation. “And” between values parts separate entries of the source, which are not always exact repeats. Identical values can stand only once. Marks after values point to notes of the source that are not given here.

As to `COc1ccc2c3c1O[C@H]1C[C@@H](O)C=C[C@@]31CCN(C)C2` [Galanthamine, galanthamine], the “Mean mg melanin/100K cells” value is 24.0^e mg melanin/100K cells (0.1 μM), 19.4^d mg melanin/100K cells (1 μM) and 23.4^c mg melanin/100K cells (10 μM). Moreover, the “mg melanin/100K cells” value is 21.2 mg melanin/100K cells and 26.7 mg melanin/100K cells and 23.9 mg melanin/100K cells (0.1 μM); 21.0 mg melanin/100K cells and 18.6 mg melanin/100K cells and 18.5 mg melanin/100K cells (1 μM); 23.3 mg melanin/100K cells and 23.7 mg melanin/100K cells and 23.0 mg melanin/100K cells (10 μM).
